Target: T1, STK10 (Homo sapiens, UniProt O94804)
T1 construct: purchased in-house DSF kinase panel (SGC-style construct names; the trailing letter is the construct ID)
Assay: DSF Tm panel
Format: binding
Conditions: 10 μM compound

T1 sequence (O94804 18-317 limits assumed): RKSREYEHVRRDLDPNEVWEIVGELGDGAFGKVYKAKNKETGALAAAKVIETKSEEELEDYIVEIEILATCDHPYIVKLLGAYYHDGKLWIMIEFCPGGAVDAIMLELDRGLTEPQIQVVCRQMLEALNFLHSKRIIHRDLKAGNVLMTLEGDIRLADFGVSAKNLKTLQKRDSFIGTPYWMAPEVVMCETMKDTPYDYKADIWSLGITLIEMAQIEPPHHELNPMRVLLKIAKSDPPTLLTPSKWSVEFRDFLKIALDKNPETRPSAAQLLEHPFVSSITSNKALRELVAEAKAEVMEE

Row | ΔTm at 10 µM | Compound
1 | 7.3 °C | O=C(NCc1ccc(Cl)cc1F)Nc1ccc2cc1OCCOCCNc1ccn3ncc-2c3n1 [compound 21]
2 | 11.1 °C | Cc1cc(Cl)ccc1CNC(=O)Nc1ccc2cc1OCCOCCNc1ccn3ncc-2c3n1 [compound 23]

Target: T2, UKL3A (ULK3A) (Homo sapiens, UniProt Q6PHR2)
T2 construct: purchased in-house DSF kinase panel (SGC-style construct names; the trailing letter is the construct ID)
T2 sequence (Q6PHR2 1-279): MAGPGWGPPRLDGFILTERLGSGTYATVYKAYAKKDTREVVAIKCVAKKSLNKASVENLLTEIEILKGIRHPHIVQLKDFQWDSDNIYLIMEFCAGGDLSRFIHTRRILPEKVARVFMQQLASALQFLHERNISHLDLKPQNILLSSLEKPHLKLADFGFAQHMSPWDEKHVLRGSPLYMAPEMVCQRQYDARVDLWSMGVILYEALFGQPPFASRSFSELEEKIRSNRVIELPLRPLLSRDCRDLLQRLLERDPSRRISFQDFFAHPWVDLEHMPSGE
Assay: DSF Tm panel
Format: binding
Conditions: 10 μM compound

Row | ΔTm at 10 µM | Compound
3 | 4.6 °C | O=C(NCc1ccc(Cl)cc1F)Nc1ccc2cc1OCCOCCNc1ccn3ncc-2c3n1 [compound 21]
4 | 3.7 °C | Cc1cc(Cl)ccc1CNC(=O)Nc1ccc2cc1OCCOCCNc1ccn3ncc-2c3n1 [compound 23]

Target: T3, CLK1A (Homo sapiens, UniProt P49759)
T3 construct: purchased in-house DSF kinase panel (SGC-style construct names; the trailing letter is the construct ID)
Assay: DSF Tm panel
Format: binding
Conditions: 10 μM compound

T3 sequence (P49759 148-484): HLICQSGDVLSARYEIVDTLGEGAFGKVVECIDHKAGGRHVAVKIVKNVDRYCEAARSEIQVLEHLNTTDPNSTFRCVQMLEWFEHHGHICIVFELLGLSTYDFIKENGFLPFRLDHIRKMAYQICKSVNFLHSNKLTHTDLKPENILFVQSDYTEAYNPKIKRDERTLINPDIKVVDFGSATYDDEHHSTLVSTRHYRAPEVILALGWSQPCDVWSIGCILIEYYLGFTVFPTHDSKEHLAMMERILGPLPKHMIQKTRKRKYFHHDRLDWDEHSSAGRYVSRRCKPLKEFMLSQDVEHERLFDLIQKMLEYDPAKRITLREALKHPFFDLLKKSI

Row | ΔTm at 10 µM | Compound
5 | 2.8 °C | O=C(NCc1ccc(Cl)cc1F)Nc1ccc2cc1OCCOCCNc1ccn3ncc-2c3n1 [compound 21]
6 | 2.6 °C | Cc1cc(Cl)ccc1CNC(=O)Nc1ccc2cc1OCCOCCNc1ccn3ncc-2c3n1 [compound 23]

Target: T4, DAPK3 (DAPK3A) (Homo sapiens, UniProt O43293)
T4 construct: purchased in-house DSF kinase panel (SGC-style construct names; the trailing letter is the construct ID)
Assay: DSF Tm panel
Format: binding
Conditions: 10 μM compound

T4 sequence (O43293 whole entry): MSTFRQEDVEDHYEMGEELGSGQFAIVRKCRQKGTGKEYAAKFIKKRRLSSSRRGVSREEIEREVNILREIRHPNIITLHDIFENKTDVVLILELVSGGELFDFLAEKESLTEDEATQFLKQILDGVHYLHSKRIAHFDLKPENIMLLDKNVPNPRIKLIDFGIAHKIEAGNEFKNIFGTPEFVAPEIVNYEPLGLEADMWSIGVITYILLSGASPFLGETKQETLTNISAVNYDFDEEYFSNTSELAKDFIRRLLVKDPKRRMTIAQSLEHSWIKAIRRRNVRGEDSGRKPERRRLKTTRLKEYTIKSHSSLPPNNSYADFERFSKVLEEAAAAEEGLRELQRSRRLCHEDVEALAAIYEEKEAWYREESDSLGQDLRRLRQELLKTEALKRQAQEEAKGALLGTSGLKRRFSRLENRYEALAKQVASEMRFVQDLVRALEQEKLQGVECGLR

Row | ΔTm at 10 µM | Compound
7 | 1.1 °C | O=C(NCc1ccc(Cl)cc1F)Nc1ccc2cc1OCCOCCNc1ccn3ncc-2c3n1 [compound 21]
8 | -0.3 °C | Cc1cc(Cl)ccc1CNC(=O)Nc1ccc2cc1OCCOCCNc1ccn3ncc-2c3n1 [compound 23]

Target: T5, MAP3K5A (Homo sapiens, UniProt Q99683)
T5 construct: purchased in-house DSF kinase panel (SGC-style construct names; the trailing letter is the construct ID)
Assay: DSF Tm panel
Format: binding
Conditions: 10 μM compound

T5 sequence (Q99683 659-951): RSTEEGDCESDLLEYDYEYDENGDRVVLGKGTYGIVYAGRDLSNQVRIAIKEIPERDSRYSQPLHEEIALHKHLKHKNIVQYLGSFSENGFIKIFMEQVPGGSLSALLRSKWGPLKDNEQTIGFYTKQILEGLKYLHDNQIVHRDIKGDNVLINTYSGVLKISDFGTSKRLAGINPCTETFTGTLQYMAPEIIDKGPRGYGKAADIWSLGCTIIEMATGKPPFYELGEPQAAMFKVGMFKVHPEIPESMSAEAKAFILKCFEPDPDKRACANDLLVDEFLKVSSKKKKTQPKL

Row | ΔTm at 10 µM | Compound
9 | 2.7 °C | O=C(NCc1ccc(Cl)cc1F)Nc1ccc2cc1OCCOCCNc1ccn3ncc-2c3n1 [compound 21]
10 | 1 °C | Cc1cc(Cl)ccc1CNC(=O)Nc1ccc2cc1OCCOCCNc1ccn3ncc-2c3n1 [compound 23]

Target: T6, PCTK1A (Homo sapiens, UniProt Q00536)
T6 construct: purchased in-house DSF kinase panel (SGC-style construct names; the trailing letter is the construct ID)
Assay: DSF Tm panel
Format: binding
Conditions: 10 μM compound

T6 sequence (Q00536 163-478): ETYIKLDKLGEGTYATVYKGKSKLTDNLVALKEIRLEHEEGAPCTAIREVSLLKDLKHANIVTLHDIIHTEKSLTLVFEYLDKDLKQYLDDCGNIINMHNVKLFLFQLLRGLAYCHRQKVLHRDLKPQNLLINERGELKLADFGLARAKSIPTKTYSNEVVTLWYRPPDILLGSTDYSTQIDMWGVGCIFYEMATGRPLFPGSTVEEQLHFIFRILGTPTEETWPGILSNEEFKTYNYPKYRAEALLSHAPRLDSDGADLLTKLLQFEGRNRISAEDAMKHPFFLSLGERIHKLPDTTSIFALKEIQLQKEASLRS

Row | ΔTm at 10 µM | Compound
11 | 1.1 °C | O=C(NCc1ccc(Cl)cc1F)Nc1ccc2cc1OCCOCCNc1ccn3ncc-2c3n1 [compound 21]
12 | 2.8 °C | Cc1cc(Cl)ccc1CNC(=O)Nc1ccc2cc1OCCOCCNc1ccn3ncc-2c3n1 [compound 23]

Target: T7, MAP2K6A (Homo sapiens, UniProt P52564)
T7 construct: purchased in-house DSF kinase panel (SGC-style construct names; the trailing letter is the construct ID)
T7 sequence (P52564 53-314): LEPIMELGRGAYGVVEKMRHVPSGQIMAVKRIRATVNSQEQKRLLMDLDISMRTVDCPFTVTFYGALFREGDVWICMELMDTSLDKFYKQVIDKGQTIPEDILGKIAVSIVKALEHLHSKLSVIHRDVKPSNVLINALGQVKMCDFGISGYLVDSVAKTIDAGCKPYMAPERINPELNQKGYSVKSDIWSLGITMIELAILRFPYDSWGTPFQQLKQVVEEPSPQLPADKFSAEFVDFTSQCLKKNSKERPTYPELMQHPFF
Assay: DSF Tm panel
Format: binding
Conditions: 10 μM compound

Row | ΔTm at 10 µM | Compound
13 | 1.3 °C | O=C(NCc1ccc(Cl)cc1F)Nc1ccc2cc1OCCOCCNc1ccn3ncc-2c3n1 [compound 21]
14 | 0.4 °C | Cc1cc(Cl)ccc1CNC(=O)Nc1ccc2cc1OCCOCCNc1ccn3ncc-2c3n1 [compound 23]

Target: T8, CAMK2BA (Homo sapiens, UniProt Q13554)
T8 construct: purchased in-house DSF kinase panel (SGC-style construct names; the trailing letter is the construct ID)
Assay: DSF Tm panel
Format: binding
Conditions: 10 μM compound

T8 sequence (Q13554 11-303): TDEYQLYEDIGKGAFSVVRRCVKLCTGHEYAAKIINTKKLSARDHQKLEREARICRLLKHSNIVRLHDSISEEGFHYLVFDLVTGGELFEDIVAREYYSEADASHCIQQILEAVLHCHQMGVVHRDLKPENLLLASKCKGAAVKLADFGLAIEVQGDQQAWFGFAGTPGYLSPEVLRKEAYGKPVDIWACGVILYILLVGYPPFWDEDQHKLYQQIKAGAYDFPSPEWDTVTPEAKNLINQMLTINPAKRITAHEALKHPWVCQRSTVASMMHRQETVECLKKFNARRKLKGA

Row | ΔTm at 10 µM | Compound
15 | 0.8 °C | O=C(NCc1ccc(Cl)cc1F)Nc1ccc2cc1OCCOCCNc1ccn3ncc-2c3n1 [compound 21]
16 | 0.9 °C | Cc1cc(Cl)ccc1CNC(=O)Nc1ccc2cc1OCCOCCNc1ccn3ncc-2c3n1 [compound 23]

Target: T9, ABL1 (ABL1A) (Homo sapiens, UniProt P00519)
T9 construct: purchased in-house DSF kinase panel (SGC-style construct names; the trailing letter is the construct ID)
T9 sequence (P00519 229-512): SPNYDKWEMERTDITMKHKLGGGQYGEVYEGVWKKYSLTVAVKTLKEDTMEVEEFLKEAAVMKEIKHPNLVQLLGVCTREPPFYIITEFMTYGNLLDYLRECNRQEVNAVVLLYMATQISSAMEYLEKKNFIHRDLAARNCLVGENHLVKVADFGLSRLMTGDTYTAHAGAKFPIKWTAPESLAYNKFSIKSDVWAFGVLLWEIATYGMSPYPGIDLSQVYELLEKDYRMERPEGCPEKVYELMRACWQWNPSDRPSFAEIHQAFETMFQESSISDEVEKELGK
Assay: DSF Tm panel
Format: binding
Conditions: 10 μM compound

Row | ΔTm at 10 µM | Compound
17 | 2.3 °C | O=C(NCc1ccc(Cl)cc1F)Nc1ccc2cc1OCCOCCNc1ccn3ncc-2c3n1 [compound 21]
18 | 1.7 °C | Cc1cc(Cl)ccc1CNC(=O)Nc1ccc2cc1OCCOCCNc1ccn3ncc-2c3n1 [compound 23]

Target: T10, PIM1 (PIM1A) (Homo sapiens, UniProt P11309)
T10 construct: purchased in-house DSF kinase panel (SGC-style construct names; the trailing letter is the construct ID)
Assay: DSF Tm panel
Format: binding
Conditions: 10 μM compound

T10 sequence (P11309 whole entry): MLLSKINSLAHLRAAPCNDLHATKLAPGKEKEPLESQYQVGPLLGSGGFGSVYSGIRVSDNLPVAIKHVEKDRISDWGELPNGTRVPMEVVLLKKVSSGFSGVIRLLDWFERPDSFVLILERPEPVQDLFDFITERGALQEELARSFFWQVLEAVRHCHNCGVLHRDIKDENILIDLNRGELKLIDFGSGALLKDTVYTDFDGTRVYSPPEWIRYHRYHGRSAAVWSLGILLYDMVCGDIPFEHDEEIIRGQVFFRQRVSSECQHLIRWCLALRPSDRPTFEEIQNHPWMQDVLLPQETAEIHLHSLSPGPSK

Row | ΔTm at 10 µM | Compound
19 | 2.8 °C | O=C(NCc1ccc(Cl)cc1F)Nc1ccc2cc1OCCOCCNc1ccn3ncc-2c3n1 [compound 21]
20 | 2.3 °C | Cc1cc(Cl)ccc1CNC(=O)Nc1ccc2cc1OCCOCCNc1ccn3ncc-2c3n1 [compound 23]

Target: T11, GPRK5A (Homo sapiens, UniProt P34947)
T11 construct: purchased in-house DSF kinase panel (SGC-style construct names; the trailing letter is the construct ID)
Assay: DSF Tm panel
Format: binding
Conditions: 10 μM compound

T11 sequence (P34947 186-514): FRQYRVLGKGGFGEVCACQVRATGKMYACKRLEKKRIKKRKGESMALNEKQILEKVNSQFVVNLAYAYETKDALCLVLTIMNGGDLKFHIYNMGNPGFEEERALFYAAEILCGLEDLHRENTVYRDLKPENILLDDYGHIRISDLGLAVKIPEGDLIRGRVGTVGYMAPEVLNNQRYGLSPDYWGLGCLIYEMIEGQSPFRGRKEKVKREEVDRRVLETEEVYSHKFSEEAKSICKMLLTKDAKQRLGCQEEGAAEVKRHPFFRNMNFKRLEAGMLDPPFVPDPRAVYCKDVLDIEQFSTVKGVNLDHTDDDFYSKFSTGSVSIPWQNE

Row | ΔTm at 10 µM | Compound
21 | 1.4 °C | O=C(NCc1ccc(Cl)cc1F)Nc1ccc2cc1OCCOCCNc1ccn3ncc-2c3n1 [compound 21]
22 | 0.8 °C | Cc1cc(Cl)ccc1CNC(=O)Nc1ccc2cc1OCCOCCNc1ccn3ncc-2c3n1 [compound 23]

Target: T12, BRAFA (Homo sapiens, UniProt P15056)
T12 construct: purchased in-house DSF kinase panel (SGC-style construct names; the trailing letter is the construct ID)
Assay: DSF Tm panel
Format: binding
Conditions: 10 μM compound

T12 sequence (P15056 448-723): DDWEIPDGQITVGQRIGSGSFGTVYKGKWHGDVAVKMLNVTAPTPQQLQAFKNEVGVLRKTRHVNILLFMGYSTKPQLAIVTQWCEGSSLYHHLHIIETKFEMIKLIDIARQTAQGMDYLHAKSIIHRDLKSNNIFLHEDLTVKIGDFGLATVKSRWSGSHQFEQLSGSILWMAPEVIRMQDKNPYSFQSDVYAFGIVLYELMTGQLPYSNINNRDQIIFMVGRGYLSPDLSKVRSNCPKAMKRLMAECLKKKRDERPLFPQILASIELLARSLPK

Row | ΔTm at 10 µM | Compound
23 | 0.5 °C | O=C(NCc1ccc(Cl)cc1F)Nc1ccc2cc1OCCOCCNc1ccn3ncc-2c3n1 [compound 21]
24 | 0.5 °C | Cc1cc(Cl)ccc1CNC(=O)Nc1ccc2cc1OCCOCCNc1ccn3ncc-2c3n1 [compound 23]

Target: T13, CSNK1DA (Homo sapiens, UniProt P48730)
T13 construct: purchased in-house DSF kinase panel (SGC-style construct names; the trailing letter is the construct ID)
T13 sequence (P48730 1-294): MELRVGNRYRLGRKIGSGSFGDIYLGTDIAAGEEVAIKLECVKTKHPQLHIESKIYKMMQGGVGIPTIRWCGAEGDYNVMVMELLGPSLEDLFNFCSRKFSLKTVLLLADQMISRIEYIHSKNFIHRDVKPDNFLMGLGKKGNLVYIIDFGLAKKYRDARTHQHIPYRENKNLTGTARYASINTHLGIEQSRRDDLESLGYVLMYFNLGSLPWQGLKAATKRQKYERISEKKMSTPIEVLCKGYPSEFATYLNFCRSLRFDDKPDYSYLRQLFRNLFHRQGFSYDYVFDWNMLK
Assay: DSF Tm panel
Format: binding
Conditions: 10 μM compound

Row | ΔTm at 10 µM | Compound
25 | 0 °C | O=C(NCc1ccc(Cl)cc1F)Nc1ccc2cc1OCCOCCNc1ccn3ncc-2c3n1 [compound 21]
26 | 1.2 °C | Cc1cc(Cl)ccc1CNC(=O)Nc1ccc2cc1OCCOCCNc1ccn3ncc-2c3n1 [compound 23]

Target: T14, OSR1A (Homo sapiens, UniProt O95747)
T14 construct: purchased in-house DSF kinase panel (SGC-style construct names; the trailing letter is the construct ID)
Assay: DSF Tm panel
Format: binding
Conditions: 10 μM compound

T14 sequence (O95747 17-291): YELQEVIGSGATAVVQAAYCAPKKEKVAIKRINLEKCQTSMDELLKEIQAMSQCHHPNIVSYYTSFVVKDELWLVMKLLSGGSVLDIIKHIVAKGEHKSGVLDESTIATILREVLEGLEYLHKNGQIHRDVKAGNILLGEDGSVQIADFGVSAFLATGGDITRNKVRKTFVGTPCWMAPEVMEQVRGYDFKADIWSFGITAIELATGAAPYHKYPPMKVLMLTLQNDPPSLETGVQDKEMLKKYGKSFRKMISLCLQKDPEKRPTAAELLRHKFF

Row | ΔTm at 10 µM | Compound
27 | 1.6 °C | O=C(NCc1ccc(Cl)cc1F)Nc1ccc2cc1OCCOCCNc1ccn3ncc-2c3n1 [compound 21]
28 | 0.8 °C | Cc1cc(Cl)ccc1CNC(=O)Nc1ccc2cc1OCCOCCNc1ccn3ncc-2c3n1 [compound 23]

Target: T15, DMPK1A (Homo sapiens, UniProt Q09013)
T15 construct: purchased in-house DSF kinase panel (SGC-style construct names; the trailing letter is the construct ID)
T15 sequence (Q09013 1-629): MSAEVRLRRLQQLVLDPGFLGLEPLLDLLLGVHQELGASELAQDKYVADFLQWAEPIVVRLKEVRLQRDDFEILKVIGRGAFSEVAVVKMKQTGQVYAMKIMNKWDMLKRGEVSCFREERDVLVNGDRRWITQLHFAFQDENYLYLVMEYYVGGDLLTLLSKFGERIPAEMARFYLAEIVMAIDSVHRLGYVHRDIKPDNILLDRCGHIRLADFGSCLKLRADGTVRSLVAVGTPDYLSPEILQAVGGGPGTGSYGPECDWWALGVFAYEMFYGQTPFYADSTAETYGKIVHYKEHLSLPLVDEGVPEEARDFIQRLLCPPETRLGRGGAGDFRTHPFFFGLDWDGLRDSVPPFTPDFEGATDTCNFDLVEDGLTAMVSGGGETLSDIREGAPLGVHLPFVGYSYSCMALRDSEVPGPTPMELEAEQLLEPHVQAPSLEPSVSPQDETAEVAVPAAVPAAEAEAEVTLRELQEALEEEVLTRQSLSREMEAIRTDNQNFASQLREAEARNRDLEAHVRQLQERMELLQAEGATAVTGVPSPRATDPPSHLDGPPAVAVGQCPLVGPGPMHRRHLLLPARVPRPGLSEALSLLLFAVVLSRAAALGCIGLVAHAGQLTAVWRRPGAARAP
Assay: DSF Tm panel
Format: binding
Conditions: 10 μM compound

Row | ΔTm at 10 µM | Compound
29 | 0.2 °C | O=C(NCc1ccc(Cl)cc1F)Nc1ccc2cc1OCCOCCNc1ccn3ncc-2c3n1 [compound 21]
30 | 0.5 °C | Cc1cc(Cl)ccc1CNC(=O)Nc1ccc2cc1OCCOCCNc1ccn3ncc-2c3n1 [compound 23]

Target: T16, SRPK1A (Homo sapiens, UniProt Q96SB4)
T16 construct: purchased in-house DSF kinase panel (SGC-style construct names; the trailing letter is the construct ID)
Assay: DSF Tm panel
Format: binding
Conditions: 10 μM compound

T16 sequence (Q96SB4 80-653): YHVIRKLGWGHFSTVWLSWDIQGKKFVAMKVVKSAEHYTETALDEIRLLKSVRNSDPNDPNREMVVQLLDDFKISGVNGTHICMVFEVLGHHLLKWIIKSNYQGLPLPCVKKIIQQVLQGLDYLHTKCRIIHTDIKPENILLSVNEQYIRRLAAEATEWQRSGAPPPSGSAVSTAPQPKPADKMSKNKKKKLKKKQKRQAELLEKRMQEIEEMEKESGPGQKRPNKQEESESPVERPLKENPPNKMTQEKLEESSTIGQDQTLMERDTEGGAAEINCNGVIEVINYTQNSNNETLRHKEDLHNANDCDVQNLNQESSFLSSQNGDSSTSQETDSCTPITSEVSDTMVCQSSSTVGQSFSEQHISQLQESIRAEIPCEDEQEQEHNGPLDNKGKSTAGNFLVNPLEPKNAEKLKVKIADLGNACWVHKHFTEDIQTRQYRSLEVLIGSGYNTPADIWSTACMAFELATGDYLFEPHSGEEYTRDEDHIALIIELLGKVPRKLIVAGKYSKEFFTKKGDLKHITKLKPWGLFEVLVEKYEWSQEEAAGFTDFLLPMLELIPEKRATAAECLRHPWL

Row | ΔTm at 10 µM | Compound
31 | 0.4 °C | O=C(NCc1ccc(Cl)cc1F)Nc1ccc2cc1OCCOCCNc1ccn3ncc-2c3n1 [compound 21]
32 | 0.2 °C | Cc1cc(Cl)ccc1CNC(=O)Nc1ccc2cc1OCCOCCNc1ccn3ncc-2c3n1 [compound 23]

Target: T17, AKT3A (Homo sapiens, UniProt Q9Y243)
T17 construct: purchased in-house DSF kinase panel (SGC-style construct names; the trailing letter is the construct ID)
Assay: DSF Tm panel
Format: binding
Conditions: 10 μM compound

T17 sequence (Q9Y243 148-479): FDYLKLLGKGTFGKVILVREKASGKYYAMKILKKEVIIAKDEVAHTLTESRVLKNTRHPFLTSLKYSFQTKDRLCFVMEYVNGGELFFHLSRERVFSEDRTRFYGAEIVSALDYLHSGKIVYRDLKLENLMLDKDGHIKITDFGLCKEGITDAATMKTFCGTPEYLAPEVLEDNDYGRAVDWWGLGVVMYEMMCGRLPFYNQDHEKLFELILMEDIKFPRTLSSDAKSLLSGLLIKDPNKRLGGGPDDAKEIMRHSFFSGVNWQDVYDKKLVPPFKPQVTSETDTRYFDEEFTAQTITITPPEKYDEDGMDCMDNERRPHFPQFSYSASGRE

Row | ΔTm at 10 µM | Compound
33 | -0.3 °C | O=C(NCc1ccc(Cl)cc1F)Nc1ccc2cc1OCCOCCNc1ccn3ncc-2c3n1 [compound 21]
34 | 0.9 °C | Cc1cc(Cl)ccc1CNC(=O)Nc1ccc2cc1OCCOCCNc1ccn3ncc-2c3n1 [compound 23]

Target: T18, MAPK14A (Homo sapiens, UniProt Q16539)
T18 construct: purchased in-house DSF kinase panel (SGC-style construct names; the trailing letter is the construct ID)
Assay: DSF Tm panel
Format: binding
Conditions: 10 μM compound

T18 sequence (Q16539 whole entry): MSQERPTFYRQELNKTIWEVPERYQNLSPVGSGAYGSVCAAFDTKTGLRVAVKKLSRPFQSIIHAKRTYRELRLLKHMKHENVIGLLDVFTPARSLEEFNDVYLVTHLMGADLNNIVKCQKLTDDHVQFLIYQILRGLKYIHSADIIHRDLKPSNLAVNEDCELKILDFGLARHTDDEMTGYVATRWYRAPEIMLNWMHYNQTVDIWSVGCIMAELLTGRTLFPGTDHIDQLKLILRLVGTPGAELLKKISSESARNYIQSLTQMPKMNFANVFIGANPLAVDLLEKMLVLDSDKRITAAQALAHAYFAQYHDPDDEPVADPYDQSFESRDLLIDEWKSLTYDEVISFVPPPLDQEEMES

Row | ΔTm at 10 µM | Compound
35 | 0.5 °C | O=C(NCc1ccc(Cl)cc1F)Nc1ccc2cc1OCCOCCNc1ccn3ncc-2c3n1 [compound 21]
36 | 0.3 °C | Cc1cc(Cl)ccc1CNC(=O)Nc1ccc2cc1OCCOCCNc1ccn3ncc-2c3n1 [compound 23]
